Measured values from ChEMBL document CHEMBL4359836, “Synthesis and Biological Assessment of Pyrrolobenzoxazine Scaffold as a Potent Antioxidant” (J Med Chem, 2019).
Active and inactive are the calls of the source. The rule behind the calls is not given here.

Columns and labels:
[1] = Antioxidant activity in pH 7.4 potassium phosphate buffer assessed as CuCl2/ascorbic acid induced hydroxyl radical scavenging activity at 66 uM in presence of deoxyribose after 20 mins by thiobarbituric acid based absorbance analysis (reference value: 0.617 +/- 0.02%); type: functional
[2] = Antioxidant activity in pH 10 Tris-HCl buffer assessed as superoxide anion radical scavenging activity by measuring rate of epinephrine auto-oxidation at 10.72 uM by spectrophotometric analysis (reference value: 0.0186 +/- 0.004%); type: functional
[3] = Pro-oxidant activity in pH 7.4 potassium phosphate buffer assessed as reduction in CuCl2/ascorbic acid induced hydroxyl radical scavenging activity at > 66 uM in presence of deoxyribose by measuring deoxyribose degradation product formation after 20 mins by thiobarbituric acid based absorbance analysis
[4] = Antioxidant activity in pH 7.4 potassium phosphate buffer assessed as CuCl2/ascorbic acid induced hydroxyl radical scavenging activity by measuring trolox equivalent antioxidant capacity by measuring IC50 Trolox/IC50 test compound ratio in presence of deoxyribose by thiobarbituric acid based absorbance analysis; type: functional
[5] = Antioxidant activity in pH 10 Tris-HCl buffer assessed as superoxide anion radical scavenging activity by measuring rate of epinephrine auto-oxidation by spectrophotometric analysis; type: functional
[6] = Reducing power of the compound assessed as reducing Fe3+ power at 80 uM using K3Fe(CN)6 in pH 6.6 phosphate buffer after 20 mins by spectrophotometric analysis
[7] = Antioxidant activity in pH 7.4 phosphate buffer assessed as H2O2 scavenging activity by measuring H2O2 decomposition at 1.34 to 10.72 uM by spectrophotometric analysis; type: functional
[8] = Antioxidant activity in pH 7.4 potassium phosphate buffer assessed as CuCl2/ascorbic acid induced hydroxyl radical scavenging activity by measuring deoxyribose degradation product formation after 20 mins by thiobarbituric acid based absorbance analysis; type: functional
[9] = Antioxidant activity in pH 7.4 phosphate buffer assessed as DPPH radical scavenging activity at 4 to 100 uM after 30 mins by spectrophotometric analysis (reference value: 0.811 +/- 0.02%); type: functional
[10] = Pro-oxidant activity in pH 10 Tris-HCl buffer assessed as reduction in superoxide anion radical scavenging activity by measuring rate of epinephrine auto-oxidation at 10.72 uM by spectrophotometric analysis
[11] = Antioxidant activity in pH 10 Tris-HCl buffer assessed as superoxide anion radical scavenging activity by measuring rate of epinephrine auto-oxidation at 8.04 uM by spectrophotometric analysis (reference value: 0.0186 +/- 0.004%); type: functional
[12] = Antioxidant activity in pH 7.4 phosphate buffer assessed as DPPH radical scavenging activity after 30 mins by spectrophotometric analysis; type: functional

| Compound | Activity [1] [%] | Activity [2] [%] | Activity [3] | Ratio IC50 [4] | Activity [5] | Activity [6] | Activity [7] | Activity [8] | IC50 [8] [µM] | Activity [9] [%] | Activity [10] | Activity [11] [%] | IC50 [12] [µM] |
| --- | --- | --- | --- | --- | --- | --- | --- | --- | --- | --- | --- | --- | --- |
| COC(=O)c1c(-c2cccc(Cl)c2)cn2c1c(=O)oc1ccccc12 | 90 | 83 | Active | 1.18 | Dose-dependent effect | inactive | inactive | Dose-dependent effect | 8.4 | < 14 |  |  |  |
| CCOC(=O)c1c(-c2cc(OC)c(OC)c(OC)c2)cn2c1c(=O)oc1ccccc12 | 92 |  | Active | 2.06 | Dose-dependent effect | inactive | inactive | Dose-dependent effect | 4.8 | < 14 | Active | 83 |  |
| CCOC(=O)c1c(-c2ccc(C)cc2)cn2c1c(=O)oc1ccccc12 |  |  | Active | 0.95 | Dose-dependent effect | Dose-dependent effect | inactive | Dose-dependent effect | 10.4 | < 14 |  |  |  |
| Cc1c(C)c2c(c(C)c1O)CCC(C)(C(=O)O)O2 (stereo unspecified) [TROLOX] |  |  |  |  |  |  |  |  | 9.9 |  |  |  | 36.4 |
